We go through 5 compounds from patent US20260055060A1, “USE OF (ISOINDOLIN-2-YL)(4-HYDROXY-3-(ISOINDOLINE-2-CARBONYL)PHENYL)METHANONES IN THE TREATMENT OF TUMOR NECROSIS FACTOR RECEPTOR-ASSOCIATED PROTEIN 1 DYSFUNCTION” (UNIVERSITY OF NOTRE DAME DU LAC, priority 2022, published 2026).

Assay [1] relates to HeLa cells. The experiment in a line: TMRM staining for mitochondrial membrane potential. It counts as cell-based. The note with it: 6 h treatment, 25 μM and 50 μM.
The test system of assay [2] is HeLa cells. The experiment in a line: Seahorse mitochondrial function (oligomycin, FCCP, rot/AA injections), HeLa. In kind it is cell-based. Particulars: 6 hr pretreatment.
Assay [3] deals with 22RV1 cells. The experiment in a line: Seahorse mitochondrial function (oligomycin, FCCP, rot/AA injections), 22Rv1. In kind it is cell-based. Particulars: 6 hr pretreatment.
Assay [4] has as its system TRAP1-dependent client proteins NDUFS1, glutaminase-1, and Sirt3. The note with it: literature report; cited from earlier work.
The test system is the same in assay [5]. Kind of assay: Western blot for degradation of TRAP1 client proteins. It counts as cell-based. The note with it: for degradation of TRAP1-dependent client proteins NDUFS1, glutaminase-1, Sirt3: HeLa and 22Rv1 cells, 6 h treatment.
The subject of assay [6] is cytosolic Hsp90 clients, Akt and Cdk4, Hsp70. The experiment in a line: Western blot for cytosolic Hsp90 clients and Hsp70 induction. It counts as cell-based. The note with it: HeLa and 22Rv1 cells, 6 h treatment.
In assay [7] the test system is HeLa cells. The experiment in a line: Seahorse XFe oxygen consumption rate, HeLa. In kind it is cell-based. The note with it: 6 h treatment, significant at 25 μM and 50 μM.
Assay [8] relates to 22RV1 cells. The experiment in a line: Seahorse XFe oxygen consumption rate, 22Rv1. In kind it is cell-based. Particulars: 6 h treatment, significant at 25 μM and 50 μM.
Assay [9] concerns HeLa cells. Kind of assay: Cellular ATP production rate (glycolysis vs mitochondrial). Particulars: oligomycin and rot/AA injections. In kind it is cell-based.
Assay [10] deals with HeLa cells. Kind of assay: Mitochondrial fuel oxidation with BPTES, UK5099 and etomoxir. It counts as cell-based.
Assay [11] has as its target T1, Hsp90β (Homo sapiens, UniProt P08238).
T1 construct: 50 μL of assay buffer containing 10 nM of Hsp90, Hsp90a, Grp94, or Trap1 were added to each well
The experiment in a line: Fluorescence polarization assay (FITC-GDA tracer displacement), Hsp90β. In kind it is binding. The note with it: Table 1; concentration at which tracer 50% displaced, reported as Kd.

Entries after “also recorded” stand apart in the source; their conditions may differ.

T1 sequence (P08238 whole entry): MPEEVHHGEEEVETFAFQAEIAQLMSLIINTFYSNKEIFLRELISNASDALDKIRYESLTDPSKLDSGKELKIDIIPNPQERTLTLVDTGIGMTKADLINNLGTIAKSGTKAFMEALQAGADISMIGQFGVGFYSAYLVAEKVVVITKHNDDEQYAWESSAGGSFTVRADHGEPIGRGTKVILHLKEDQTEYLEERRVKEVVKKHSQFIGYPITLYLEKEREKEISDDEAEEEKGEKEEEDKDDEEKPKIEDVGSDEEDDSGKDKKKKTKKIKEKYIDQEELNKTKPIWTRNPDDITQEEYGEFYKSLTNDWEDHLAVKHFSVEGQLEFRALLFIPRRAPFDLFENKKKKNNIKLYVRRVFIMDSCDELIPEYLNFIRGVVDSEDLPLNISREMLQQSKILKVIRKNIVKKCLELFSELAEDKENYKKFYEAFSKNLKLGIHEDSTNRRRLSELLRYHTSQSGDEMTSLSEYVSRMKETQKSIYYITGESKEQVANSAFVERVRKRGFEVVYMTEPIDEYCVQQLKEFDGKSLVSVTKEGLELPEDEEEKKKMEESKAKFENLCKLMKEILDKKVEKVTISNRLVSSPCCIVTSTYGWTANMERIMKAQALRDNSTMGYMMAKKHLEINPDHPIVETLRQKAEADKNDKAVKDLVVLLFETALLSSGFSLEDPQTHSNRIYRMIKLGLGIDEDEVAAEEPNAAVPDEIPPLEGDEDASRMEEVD

In the case of `COC1=C(OC)C(=O)C(CCCCCCCCCC[P+](c2ccccc2)(c2ccccc2)c2ccccc2)=C(C)C1=O` [MitoQ, reference compound], in assay [1], the “TMRM fluorescence / mitochondrial membrane potential” value was “marked decrease in TMRM fluorescence”. In addition, the “proton leak, maximal respiration, non-mitochondrial O2 consumption, spare respiratory capacity” value in assay [2] and in assay [3] was “decreased” in each case. Moreover, the “degradation of TRAP1 client proteins (reported by Yoon, N. G. et al.)” value in assay [4] is “induce the degradation of these clients”.
Regarding `O=C(c1ccc(O)c(C(=O)N2Cc3ccc(OCCC[P+](c4ccccc4)(c4ccccc4)c4ccccc4)cc3C2)c1)N1Cc2cccc(F)c2C1` [Compound 35, (3-((2-(5-(4-Fluoroisoindoline-2-carbonyl)-2-hydroxybenzoyl)isoindolin-5-yl)oxy)propyl)triphenylphosphonium hexafluorophosphate(V)], the “degradation of TRAP1-dependent client proteins NDUFS1, glutaminase-1, Sirt3” value in assay [5] is “dose-dependent and selective degradation”. In addition, the “expression of TRAP1 clients NDUFS1, glutaminase-1, Sirt3” value in assay [5] (HeLa cells, 2 hr treatment, up to 50 μM) is “dose-dependently decreased”. In addition, the “degradation of cytosolic Hsp90 clients Akt and Cdk4, induction of Hsp70” value (“degradation … of Hsp70” for short) in [6] was “without inducing the degradation”. Also, the “oxygen consumption rate / OXPHOS” value was “statistically significant reduction of oxygen consumption; also recorded: significant dose-dependent decrease in OXPHOS; also recorded: inhibit OXPHOS” in assay [7] and “significant dose-dependent decrease in OXPHOS; also recorded: statistically significant reduction of oxygen consumption; also recorded: inhibit OXPHOS” in assay [8]. Further, the “TMRM fluorescence / mitochondrial membrane potential” value in assay [1] was “marked decrease in TMRM fluorescence; also recorded: disrupt the mitochondrial membrane potential”. The “proton leak, maximal respiration, non-mitochondrial O2 consumption, spare respiratory capacity” value in [2] and in assay [3] was “decreased” in each case. Besides, the “cellular ATP production via oxidative phosphorylation or glycolysis” value in assay [9] is given as “alter cellular metabolism towards glycolysis”. Moreover, in assay [10] (6 hr treatment, 32 at 50 μM), the “mitochondrial glutamine, fatty acid, and glucose oxidation” value is “reduced OCR (oxygen consumption rate) and prevented measurement”. Also, the “response of basal OCR to BPTES, UK5099, etomoxir” value in [10] (HeLa cells, 2 hr incubation, 50 μM) is “unresponsive to BPTES, UK5099, and etomoxir”.
For `COc1cccc2c1CN(C(=O)c1ccc(O)c(C(=O)N3Cc4ccc(OCCC[P+](c5ccccc5)(c5ccccc5)c5ccccc5)cc4C3)c1)C2` [Compound 36, (3-((2-(2-Hydroxy-5-(4-methoxyisoindoline-2-carbonyl)benzoyl)isoindolin-5-yl)oxy)propyl)triphenylphosphonium hexafluorophosphate(V)], the “degradation of TRAP1-dependent client proteins NDUFS1, glutaminase-1, Sirt3” value in assay [5] was “dose-dependent and selective degradation”. In assay [6], the “degradation … of Hsp70” value is given as “without inducing the degradation”. The “oxygen consumption rate / OXPHOS” value in assay [7] is listed as “statistically significant reduction of oxygen consumption; also recorded: significant dose-dependent decrease in OXPHOS; also recorded: inhibit OXPHOS”; in assay [8], “significant dose-dependent decrease in OXPHOS; also recorded: statistically significant reduction of oxygen consumption; also recorded: inhibit OXPHOS”. The “TMRM fluorescence / mitochondrial membrane potential” value in [1] is “marked decrease in TMRM fluorescence; also recorded: disrupt the mitochondrial membrane potential”. Further, the “proton leak, maximal respiration, non-mitochondrial O2 consumption, spare respiratory capacity” value in [2] and in [3] was “decreased” in each case. For the same compound, the “cellular ATP production via oxidative phosphorylation or glycolysis” value in [9] was “alter cellular metabolism towards glycolysis”.
In turn, `O=C(c1cc(C(=O)N2Cc3ccccc3C2)c(O)cc1O)N1Cc2ccccc2C1` [Compound 4] showed a dissociation constant (Kd) in assay [11] of 1 ± 0.05 µM.
As to gamitrinib [reference compound], the “degradation … of Hsp70” value in [6] is recorded as “pan-Hsp90 inhibition”. In addition, the “TMRM fluorescence / mitochondrial membrane potential” value in [1] is “marked decrease in TMRM fluorescence”. In addition, the “proton leak, maximal respiration, non-mitochondrial O2 consumption, spare respiratory capacity” value in assay [2] and in assay [3] was “decreased” each time.
